# Key:
# Parameters in all cases: scale not given here
# ABUTH Velvetleaf [1] = assay: Postemergence herbicidal evaluation, ABUTH; assay type: in vivo, Abutilon theophrasti, Medic.; conditions: postemergence spray, rated about two-three weeks after treatment
# Method in brief: (§1)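 For this test, compound in an 80/20 acetone/water vehicle with 1.0% seed oil was sprayed over two-week-old seedlings at about 0.006 to 0.400 kg per hectare. Injury was assessed visually two to three weeks on.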
# AMBEL Ragweed, Common [2] = assay: Postemergence herbicidal evaluation, AMBEL; assay type: in vivo, Ambrosia artemisifolia, L.; conditions: postemergence spray, rated about two-three weeks after treatment
# Method in brief: as §1
# CASOB Sicklepod [3] = assay: Postemergence herbicidal evaluation, CASOB; assay type: in vivo, Cassia obtusifolia, L.; conditions: postemergence spray, rated about two-three weeks after treatment
# Method in brief: as §1
# [4] = system: CHEAL Lambsquarters, Common; assay: Postemergence herbicidal evaluation, CHEAL; assay type: in vivo, Chenopodium album, L.; conditions: postemergence spray, rated about two-three weeks after treatment
# Method in brief: as §1
# ECHOG Barnyardgrass [5] = assay: Postemergence herbicidal evaluation, ECHOG; assay type: in vivo, Echinochloa crus-galli, (L.) Beau; conditions: postemergence spray, rated about two-three weeks after treatment
# Method in brief: as §1
# GALAP Galium [6] = assay: Postemergence herbicidal evaluation, GALAP; assay type: in vivo, Galium aparine; conditions: postemergence spray, rated about two-three weeks after treatment
# Method in brief: as §1
# [7] = system: IPOHE Morningglory, Ivyleaf; assay: Postemergence herbicidal evaluation, IPOHE; assay type: in vivo, Ipomoea hederacea, (L.) Jacq.; conditions: postemergence spray, rated about two-three weeks after treatment
# Method in brief: as §1
# SETVI Foxtail, Green [8] = assay: Postemergence herbicidal evaluation, SETVI; assay type: in vivo, Setaria viridis, (L.) Beau; conditions: postemergence spray, rated about two-three weeks after treatment
# Method in brief: as §1
# GLXMAW Soybean, Williams [9] = assay: Postemergence herbicidal evaluation, GLXMAW; assay type: in vivo, Glycine max, (L.) Merr. cv Williams; conditions: postemergence spray, rated about two-three weeks after treatment
# Method in brief: as §1
# [10] = system: TRZAWR Wheat, Winter, cv Riband; assay: Postemergence herbicidal evaluation, TRZAWR; assay type: in vivo, Triticum aestivum; conditions: postemergence spray, rated about two-three weeks after treatment
# Method in brief: as §1
# ORYSAT Rice, Tebonnet [11] = assay: Postemergence herbicidal evaluation, ORYSAT; assay type: in vivo, Oryza sativa, (L.); conditions: postemergence spray, rated about two-three weeks after treatment
# Method in brief: as §1
# ZEAMX Corn, Field [12] = assay: Postemergence herbicidal evaluation, ZEAMX; assay type: in vivo, Zea mays, L. (Sammel-Bezeichnung); conditions: postemergence spray, rated about two-three weeks after treatment
# Method in brief: as §1
# ABUTH Velvetleaf [13] = assay: Preemergence herbicidal evaluation, ABUTH; assay type: in vivo, Abutilon theophrasti, Medic.; conditions: preemergence
# Method in brief: (§2)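 First, seed is blended with potting soil and sown over roughly an inch of soil per cup. Next, the surface is sprayed with an aqueous acetone solution delivering about 0.013–0.800 kg/ha. Finally, cups are grown in the greenhouse and rated after 4–5 weeks.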
# AMBEL Ragweed, Common [14] = assay: Preemergence herbicidal evaluation, AMBEL; assay type: in vivo, Ambrosia artemisifolia, L.; conditions: preemergence
# Method in brief: as §2
# CASOB Sicklepod [15] = assay: Preemergence herbicidal evaluation, CASOB; assay type: in vivo, Cassia obtusifolia, L.; conditions: preemergence
# Method in brief: as §2
# [16] = system: CHEAL Lambsquarters, Common; assay: Preemergence herbicidal evaluation, CHEAL; assay type: in vivo, Chenopodium album, L.; conditions: preemergence
# Method in brief: as §2
# ECHOG Barnyardgrass [17] = assay: Preemergence herbicidal evaluation, ECHOG; assay type: in vivo, Echinochloa crus-galli, (L.) Beau; conditions: preemergence
# Method in brief: as §2
# GALAP Galium [18] = assay: Preemergence herbicidal evaluation, GALAP; assay type: in vivo, Galium aparine; conditions: preemergence
# Method in brief: as §2
# [19] = system: IPOHE Morningglory, Ivyleaf; assay: Preemergence herbicidal evaluation, IPOHE; assay type: in vivo, Ipomoea hederacea, (L.) Jacq.; conditions: preemergence
# Method in brief: as §2
# SETVI Foxtail, Green [20] = assay: Preemergence herbicidal evaluation, SETVI; assay type: in vivo, Setaria viridis, (L.) Beau; conditions: preemergence
# Method in brief: as §2
# GLXMAW Soybean, Williams [21] = assay: Preemergence herbicidal evaluation, GLXMAW; assay type: in vivo, Glycine max, (L.) Merr. cv Williams; conditions: preemergence
# Method in brief: as §2
# [22] = system: TRZAWR Wheat, Winter, cv Riband; assay: Preemergence herbicidal evaluation, TRZAWR; assay type: in vivo, Triticum aestivum; conditions: preemergence
# Method in brief: as §2
# ORYSAT Rice, Tebonnet [23] = assay: Preemergence herbicidal evaluation, ORYSAT; assay type: in vivo, Oryza sativa, (L.); conditions: preemergence
# Method in brief: as §2
# ZEAMX Corn, Field [24] = assay: Preemergence herbicidal evaluation, ZEAMX; assay type: in vivo, Zea mays, L. (Sammel-Bezeichnung); conditions: preemergence
# Method in brief: as §2
smiles,measurement,setting,value
Cc1cc(O)ccc1-n1nnc2cc(F)c(-n3c(=O)cc(C(F)(F)F)n(C)c3=O)cc21 [Example 33],Postemergence herbicidal rating ABUTH,ABUTH Velvetleaf [1]; 0.008 kg/ha,0.0
same,Postemergence herbicidal rating ABUTH,ABUTH Velvetleaf [1]; 0.016 kg/ha,3.0
same,Postemergence herbicidal rating ABUTH,ABUTH Velvetleaf [1]; 0.032 kg/ha,3.0
same,Postemergence herbicidal rating ABUTH,ABUTH Velvetleaf [1]; 0.062 kg/ha,5.0
same,Postemergence herbicidal rating AMBEL,"AMBEL Ragweed, Common [2]; 0.008 kg/ha",0.0
same,Postemergence herbicidal rating AMBEL,"AMBEL Ragweed, Common [2]; 0.016 kg/ha",0.0
same,Postemergence herbicidal rating AMBEL,"AMBEL Ragweed, Common [2]; 0.032 kg/ha",0.0
same,Postemergence herbicidal rating AMBEL,"AMBEL Ragweed, Common [2]; 0.062 kg/ha",0.0
same,Postemergence herbicidal rating CASOB,CASOB Sicklepod [3]; 0.008 kg/ha,0.0
same,Postemergence herbicidal rating CASOB,CASOB Sicklepod [3]; 0.016 kg/ha,0.0
same,Postemergence herbicidal rating CASOB,CASOB Sicklepod [3]; 0.032 kg/ha,0.0
same,Postemergence herbicidal rating CASOB,CASOB Sicklepod [3]; 0.062 kg/ha,0.0
same,Postemergence herbicidal rating CHEAL,[4]; 0.008 kg/ha,0.0
same,Postemergence herbicidal rating CHEAL,[4]; 0.016 kg/ha,0.0
same,Postemergence herbicidal rating CHEAL,[4]; 0.032 kg/ha,0.0
same,Postemergence herbicidal rating CHEAL,[4]; 0.062 kg/ha,2.0
same,Postemergence herbicidal rating ECHCG,ECHOG Barnyardgrass [5]; 0.008 kg/ha,0.0
same,Postemergence herbicidal rating ECHCG,ECHOG Barnyardgrass [5]; 0.016 kg/ha,0.0
same,Postemergence herbicidal rating ECHCG,ECHOG Barnyardgrass [5]; 0.032 kg/ha,0.0
same,Postemergence herbicidal rating ECHCG,ECHOG Barnyardgrass [5]; 0.062 kg/ha,0.0
same,Postemergence herbicidal rating GALAP,GALAP Galium [6]; 0.008 kg/ha,0.0
same,Postemergence herbicidal rating GALAP,GALAP Galium [6]; 0.016 kg/ha,0.0
same,Postemergence herbicidal rating GALAP,GALAP Galium [6]; 0.032 kg/ha,0.0
same,Postemergence herbicidal rating GALAP,GALAP Galium [6]; 0.062 kg/ha,0.0
same,Postemergence herbicidal rating IPOHE,[7]; 0.008 kg/ha,0.0
same,Postemergence herbicidal rating IPOHE,[7]; 0.016 kg/ha,2.0
same,Postemergence herbicidal rating IPOHE,[7]; 0.032 kg/ha,3.0
same,Postemergence herbicidal rating IPOHE,[7]; 0.062 kg/ha,9.0
same,Postemergence herbicidal rating SETVI,"SETVI Foxtail, Green [8]; 0.008 kg/ha",0.0
same,Postemergence herbicidal rating SETVI,"SETVI Foxtail, Green [8]; 0.016 kg/ha",0.0
same,Postemergence herbicidal rating SETVI,"SETVI Foxtail, Green [8]; 0.032 kg/ha",0.0
same,Postemergence herbicidal rating SETVI,"SETVI Foxtail, Green [8]; 0.062 kg/ha",0.0
same,Postemergence herbicidal rating GLXMAW,"GLXMAW Soybean, Williams [9]; 0.008 kg/ha",1.5
same,Postemergence herbicidal rating GLXMAW,"GLXMAW Soybean, Williams [9]; 0.016 kg/ha",3.5
same,Postemergence herbicidal rating GLXMAW,"GLXMAW Soybean, Williams [9]; 0.032 kg/ha",4.0
same,Postemergence herbicidal rating GLXMAW,"GLXMAW Soybean, Williams [9]; 0.062 kg/ha",5.0
same,Postemergence herbicidal rating TRZAWR,[10]; 0.008 kg/ha,0.5
same,Postemergence herbicidal rating TRZAWR,[10]; 0.016 kg/ha,1.0
same,Postemergence herbicidal rating TRZAWR,[10]; 0.032 kg/ha,2.0
same,Postemergence herbicidal rating TRZAWR,[10]; 0.062 kg/ha,2.5
same,Postemergence herbicidal rating ORYSAT,"ORYSAT Rice, Tebonnet [11]; 0.008 kg/ha",0.0
same,Postemergence herbicidal rating ORYSAT,"ORYSAT Rice, Tebonnet [11]; 0.016 kg/ha",0.0
same,Postemergence herbicidal rating ORYSAT,"ORYSAT Rice, Tebonnet [11]; 0.032 kg/ha",0.5
same,Postemergence herbicidal rating ORYSAT,"ORYSAT Rice, Tebonnet [11]; 0.062 kg/ha",2.0
same,Postemergence herbicidal rating ZEAMX,"ZEAMX Corn, Field [12]; 0.008 kg/ha",3.0
same,Postemergence herbicidal rating ZEAMX,"ZEAMX Corn, Field [12]; 0.016 kg/ha",3.0
same,Postemergence herbicidal rating ZEAMX,"ZEAMX Corn, Field [12]; 0.032 kg/ha",3.5
same,Postemergence herbicidal rating ZEAMX,"ZEAMX Corn, Field [12]; 0.062 kg/ha",4.0
same,ABUTH herbicidal rating,ABUTH Velvetleaf [13]; rate 0.016 kg/ha,0.0
same,ABUTH herbicidal rating,ABUTH Velvetleaf [13]; rate 0.032 kg/ha,0.0
same,ABUTH herbicidal rating,ABUTH Velvetleaf [13]; rate 0.062 kg/ha,0.0
same,ABUTH herbicidal rating,ABUTH Velvetleaf [13]; rate 0.125 kg/ha,9.0
same,AMBEL herbicidal rating,"AMBEL Ragweed, Common [14]; rate 0.016 kg/ha",0.0
same,AMBEL herbicidal rating,"AMBEL Ragweed, Common [14]; rate 0.032 kg/ha",0.0
same,AMBEL herbicidal rating,"AMBEL Ragweed, Common [14]; rate 0.062 kg/ha",0.0
same,AMBEL herbicidal rating,"AMBEL Ragweed, Common [14]; rate 0.125 kg/ha",0.0
same,CASOB herbicidal rating,CASOB Sicklepod [15]; rate 0.016 kg/ha,0.0
same,CASOB herbicidal rating,CASOB Sicklepod [15]; rate 0.032 kg/ha,0.0
same,CASOB herbicidal rating,CASOB Sicklepod [15]; rate 0.062 kg/ha,0.0
same,CASOB herbicidal rating,CASOB Sicklepod [15]; rate 0.125 kg/ha,0.0
same,CHEAL herbicidal rating,[16]; rate 0.016 kg/ha,9.0
same,CHEAL herbicidal rating,[16]; rate 0.032 kg/ha,9.0
same,CHEAL herbicidal rating,[16]; rate 0.062 kg/ha,9.0
same,CHEAL herbicidal rating,[16]; rate 0.125 kg/ha,9.0
same,ECHCG herbicidal rating,ECHOG Barnyardgrass [17]; rate 0.016 kg/ha,0.0
same,ECHCG herbicidal rating,ECHOG Barnyardgrass [17]; rate 0.032 kg/ha,0.0
same,ECHCG herbicidal rating,ECHOG Barnyardgrass [17]; rate 0.062 kg/ha,0.0
same,ECHCG herbicidal rating,ECHOG Barnyardgrass [17]; rate 0.125 kg/ha,0.0
same,GALAP herbicidal rating,GALAP Galium [18]; rate 0.016 kg/ha,0.0
same,GALAP herbicidal rating,GALAP Galium [18]; rate 0.032 kg/ha,0.0
same,GALAP herbicidal rating,GALAP Galium [18]; rate 0.062 kg/ha,0.0
same,GALAP herbicidal rating,GALAP Galium [18]; rate 0.125 kg/ha,0.0
same,IPOHE herbicidal rating,[19]; rate 0.016 kg/ha,0.0
same,IPOHE herbicidal rating,[19]; rate 0.032 kg/ha,0.0
same,IPOHE herbicidal rating,[19]; rate 0.062 kg/ha,0.0
same,IPOHE herbicidal rating,[19]; rate 0.125 kg/ha,0.0
same,SETVI herbicidal rating,"SETVI Foxtail, Green [20]; rate 0.016 kg/ha",0.0
same,SETVI herbicidal rating,"SETVI Foxtail, Green [20]; rate 0.032 kg/ha",0.0
same,SETVI herbicidal rating,"SETVI Foxtail, Green [20]; rate 0.062 kg/ha",0.0
same,SETVI herbicidal rating,"SETVI Foxtail, Green [20]; rate 0.125 kg/ha",0.0
same,GLXMAW herbicidal rating,"GLXMAW Soybean, Williams [21]; rate 0.016 kg/ha",0.0
same,GLXMAW herbicidal rating,"GLXMAW Soybean, Williams [21]; rate 0.032 kg/ha",0.0
same,GLXMAW herbicidal rating,"GLXMAW Soybean, Williams [21]; rate 0.062 kg/ha",0.0
same,GLXMAW herbicidal rating,"GLXMAW Soybean, Williams [21]; rate 0.125 kg/ha",0.0
same,TRZAWR herbicidal rating,[22]; rate 0.016 kg/ha,0.0
same,TRZAWR herbicidal rating,[22]; rate 0.032 kg/ha,0.0
same,TRZAWR herbicidal rating,[22]; rate 0.062 kg/ha,0.0
same,TRZAWR herbicidal rating,[22]; rate 0.125 kg/ha,0.0
same,ORYSAT herbicidal rating,"ORYSAT Rice, Tebonnet [23]; rate 0.016 kg/ha",0.0
same,ORYSAT herbicidal rating,"ORYSAT Rice, Tebonnet [23]; rate 0.032 kg/ha",0.0
same,ORYSAT herbicidal rating,"ORYSAT Rice, Tebonnet [23]; rate 0.062 kg/ha",0.0
same,ORYSAT herbicidal rating,"ORYSAT Rice, Tebonnet [23]; rate 0.125 kg/ha",0.0
same,ZEAMX herbicidal rating,"ZEAMX Corn, Field [24]; rate 0.016 kg/ha",0.0
same,ZEAMX herbicidal rating,"ZEAMX Corn, Field [24]; rate 0.032 kg/ha",0.0
same,ZEAMX herbicidal rating,"ZEAMX Corn, Field [24]; rate 0.062 kg/ha",0.0
same,ZEAMX herbicidal rating,"ZEAMX Corn, Field [24]; rate 0.125 kg/ha",0.0
